Test results taken from patent US20210213039A1, “COMPOSITION CONTAINING ECTOINE OR HYDROXYECTOINE AS AN ACTIVE SUBSTANCE FOR PROMOTING THE REGENERATION OF INJURED BODY TISSUE” (Bitop AG, priority 2012, published 2021).

Columns and labels:
[1] = system: porcine ex-vivo skin punches; assay: Ex-vivo porcine wound healing model (skin punches, wound healing score); parameters: species or system pig; conditions: for Wound healing potential: porcine ex-vivo skin punches; for Wound healing progress based on the PBS control (MW) / Absolute wound healing progress (wound healing score, MW): 5 μl into the wound, after 48 h; for Wound healing progress based on the PBS control (MW): PBS isotonic = 1.00; for Absolute wound healing progress (wound healing score, MW): score 0-4
Experimental: An ex-vivo porcine wound healing model was used as it has been described in patent publication DE 103 17 400 B4.
From the plicae of washed and sterilized pig ears sample punches 6 mm in diameter were taken. From the center of the punches the epidermis and the upper dermis were removed in an area of 3 mm. Immediately after the models had been generated 5 μl of the test substances were introduced into the wounds, while 5 μl of PBS were applied into the control models. After 48 h (t48 h) the models were flash-frozen and stored at −80° C.
14 test series each were carried out so that 8 to 11 evaluable models were available for each sample.
The models were completely embedded in tissue freezing medium (company of Leica, Nussloch), and 6 μm thin sections were prepared using a cryostat. Care had been taken that the focus was always in the center of the respective model.
The sections were placed on SuperFrost object slides, air dried, fixed for 10 min. in −20° C. cold acetone, and stored at −80° C.
All models were stained with hematoxylin/eosin (2 sections each). The sequence of the staining process was as follows:
The staining was evaluated by means of a Leica light microscope DM LS and an Olympus Camedia digital camera.
0: No wound healing progress 1: Small wound tongue 2: Large wound tongue 3: Closed sheet 4: Multi-layered closed sheet.
In the event that both wound margins could be assessed the average between the left and the right wound margin was determined. The statistical evaluations were made using Student's paired T-test.

[2] = system: ARPE-19 cells (adherent retinal pigment epithelial cells); assay: Re-epithelialization scratch assay; assay type: cell-based; conditions: for Gap width in %: after 24 h, untreated sample = 100%; for Gap width in treated cell cultures (re-epithelialization): first two days, especially in serum-free cultures
Experimental: After 24 hours of incubation using 0, 0.1, 0.5, 1, 2.5 and 5 mM of ectoine/hydroxyectoine in serum-free and serum-containing media defined cell areas were removed (scratch assay) from a confluent cell layer of ARPE-19 cells (adherent retinal pigment epithelial cells). The width of the applied gap was determined via microscope at previously marked places. 24 and 48 hours later in each case a photo documentation was prepared with the gap width being again determined at the respective places. 6 tests were performed for each concentration.
The mean value of the gap widths after 24 h of the sample not treated with ectoine was determined to be 100%. The following gap width percentages could be detected: […]

[3] = system: HaCaT cells (human skin cells); assay: Wound closure in vitro: circular injury in a HaCaT monolayer; assay type: cell-based; conditions: for Area of Injury (MW): 0.5% FCS, n=4
Experimental: Plating of HaCaT cells (human skin cells) took place on collagen-I coated 24-well plates. With a complete medium (10% FCS=fetal calf serum) the cells grew together as monolayer within a period of 24 h.
After this cell layer had closed a circular injury was applied in the center using a sterile tip of a defined diameter that averaged 0.68 mm (0.363 mm^2).
When the injury had been applied the complete medium was changed to a starvation medium containing only 0.5 w/w of FCS (fetal calf serum) instead of 10% w/w FCS. The following test solutions were then pipetted on the cells (per solution: n=4):
0.5% FCS+PBS (phosphate buffered saline), control solution 0.5 FCS+1 mM ectoine 0.5 FCS+10 mM ectoine 0.5% FCS+100 mM ectoine.
Over a time span of 48 h the cells were incubated with the test solutions during which wound closure was documented with the aid of a digital camera. In each case photos were taken at the beginning and then at 24-h intervals. The area still found to be free in each case was measured or calculated and expressed in mm^2. The results can be seen from the following tables (SD: Standard deviation, MW: Mean value): […]

`OCC(CO)OC1OC(CO)[C@@H](O)C(O)C1O` (stereo in doubt) [glucosylglycerol, 2-O-α-D-glucosylglycerol] was tested, and the Wound healing potential [1] was “improved wound healing potential”.

For `OCC(CO)O[C@H]1O[C@H](CO)[C@@H](O)[C@H](O)[C@H]1O` [GG I, Glucosylglycerol], the “Wound healing progress based on the PBS control (MW)” value (from here on “Wound healing progress based”) [1] was 1.42 and the “Absolute wound healing progress (wound healing score, MW)” value (“Absolute wound healing progress” below) [1] was 2.12.

`OCC(CO)O[C@H]1O[C@H](CO)[C@@H](O)[C@H](O)[C@H]1O` [GG hypertonic, Glucosylglycerol] was tested, and the “Wound healing progress based” value [1] was 1.17 and the “Absolute wound healing progress” value [1] was 1.66.

With `CC1=NC[C@H](O)[C@@H](C(=O)O)N1` [HE I, Hydroxyectoine] the “Wound healing progress based” value [1] was 1.05 and the “Absolute wound healing progress” value [1] was 1.92.

`CC1=NC[C@H](O)[C@@H](C(=O)O)N1` [HE hypertonic, Hydroxyectoine] was tested, and the “Wound healing progress based” value [1] was 1.21 and the “Absolute wound healing progress” value [1] was 2.08.

For `CC1=NCC[C@@H](C(=O)O)N1` [ectoine, (S)-2-methyl-1,4,5,6-tetrahydropyrimidine-4-carboxylic acid], the “Gap width in %” value ([2]; 0.1 mM ectoine) was 100.687%, the “Gap width in %” value ([2]; 0.5 mM ectoine) was 96.434% and the “Gap width in %” value ([2]; 1 mM ectoine) was 91.632%. For the same compound, the “Gap width in %” value ([2]; 2.5 mM ectoine) was 93.012%, the “Gap width in %” value ([2]; 5 mM ectoine) was 88.418% and the “Gap width in treated cell cultures (re-epithelialization)” value [2] was “diminished faster”. For the same compound, the “Closure of the circular injury in comparison with the control solution” value (“Closure of the circular injury” below) ([3]; 1 mM ectoine) was “marked tendency towards faster closure”, the “Area of Injury (MW)” value ([3]; 1 mM ectoine, after 0 hours) was 0.354 mm^2 and the “Area of Injury (MW)” value ([3]; 1 mM ectoine, after 24 hours) was 0.157 mm^2. The “Area of Injury (MW)” value ([3]; 1 mM ectoine, after 48 hours) was 0.042 mm^2, the “Closure of the circular injury” value ([3]; 10 mM ectoine) was “marked tendency towards faster closure” and the “Area of Injury (MW)” value ([3]; 10 mM ectoine, after 0 hours) was 0.351 mm^2. For the same compound, the “Area of Injury (MW)” value ([3]; 10 mM ectoine, after 24 hours) was 0.182 mm^2, the “Area of Injury (MW)” value ([3]; 10 mM ectoine, after 48 hours) was 0.023 mm^2 and the “Closure of the circular injury” value ([3]; 100 mM ectoine) was “delayed healing”. The “Area of Injury (MW)” value ([3]; 100 mM ectoine, after 0 hours) was 0.325 mm^2, the “Area of Injury (MW)” value ([3]; 100 mM ectoine, after 24 hours) was 0.244 mm^2 and the “Area of Injury (MW)” value ([3]; 100 mM ectoine, after 48 hours) was 0.171 mm^2.

In the case of `CC1=NC[C@H](O)[C@@H](C(=O)O)N1` [hydroxyectoine, (4S,5S)-5-hydroxy-2-methyl-1,4,5,6-tetrahydropyrimidine-4-carboxylic acid], the “Re-epithelialization, hydroxyectoine compared with ectoine” value [2] was “slightly more effective with hydroxyectoine than with ectoine”, the “Gap width in treated cell cultures (re-epithelialization)” value [2] was “diminished faster” and the Wound healing potential [1] was “improved wound healing potential”.
